Reference: patent US5041567A, “Antibacterial monic acid derivatives” (Beecham Group plc, priority 1982, dated 1991)
In brackets after ≈: the same amount, converted by molar mass. Like-named read-outs stand apart in the source and are kept apart here.

Experiments:
[1] = tested on: Pasteurella multocida 1633; experiment: MIC against human bacteria in vitro; assay type: cell-based; conditions: Pasteurella multocida 1633; 5% chocolated horse blood agar, 18 hours; read-out: MIC
S. dublin S7 = experiment: MIC against veterinary bacteria in vitro; conditions: Salmonella enterica, S7, 18 h
Procedure: (§1) The activity of the compounds of the Examples against various veterinarily important bacteria, was assayed in vitro using two-fold serial dilutions in Diagnostic Sensitivity Test Agar inoculated with 10^4 organisms.

M. suipneumoniae JF 435 = experiment: MIC against mycoplasma in vitro; assay type: cell-based; conditions: Mesomycoplasma hyopneumoniae, JF435, 144 h
E. coli NCTC 10418 [2] = experiment: MIC against veterinary bacteria in vitro; conditions: Escherichia coli, NCTC10418, 18 h
Procedure: as §1

Staph. aureus Oxford [3] = experiment: MIC against human bacteria in vitro; assay type: cell-based; conditions: Staphylococcus aureus; Staph. aureus Oxford; 5% chocolated horse blood agar, 18 hours; read-out: MIC
E. coli NCTC 10418 [4] = experiment: MIC against human bacteria in vitro; assay type: cell-based; conditions: Escherichia coli, NCTC10418; E. coli NCTC 10418; agar with 5% chocolated horse blood, 18 hours, 37° C.; read-out: MIC
S. typhimurium S18 = experiment: MIC against veterinary bacteria in vitro; conditions: Salmonella enterica, TYPHIMURIUM, 18 h
Procedure: as §1

M. suipneumoniae Str. 11 = experiment: MIC against mycoplasma in vitro; assay type: cell-based; conditions: Mesomycoplasma hyopneumoniae, 144 h; M. suipneumoniae Str. 11; 6 days, 37° C.; read-out: MIC
Staph. aureus Oxford [5] = experiment: MIC against veterinary bacteria in vitro; conditions: Staphylococcus aureus, 18 h
Procedure: as §1

Strep. uberis SPU1 = experiment: MIC against veterinary bacteria in vitro; conditions: Streptococcus uberis, SPU1, 18 h
Procedure: as §1

[6] = tested on: M. suipneumoniae NCTC 10110; experiment: MIC against mycoplasma in vitro; assay type: cell-based; conditions: Mesomycoplasma hyopneumoniae, NCTC10110, 144 h
Bacillus subtilis 6633 = experiment: MIC against human bacteria in vitro; assay type: cell-based
E. coli ESS = experiment: MIC against human bacteria in vitro; assay type: cell-based; conditions: Escherichia coli; E. coli ESS; 5% chocolated horse blood agar, 18 hours; read-out: MIC
[7] = tested on: M. suipneumoniae PW/C/210; experiment: MIC against mycoplasma in vitro; assay type: cell-based; conditions: Mesomycoplasma hyopneumoniae, 144 h; M. suipneumoniae PW/C/210; 6 days, 37° C.; read-out: MIC
[8] = tested on: Staph. aureus 152 (pen. sens); experiment: MIC against veterinary bacteria in vitro; conditions: Staphylococcus aureus, 18 h
Procedure: as §1

[9] = tested on: Strep. pyogenes R80/421-A; experiment: MIC against human bacteria in vitro; assay type: cell-based; conditions: Streptococcus pyogenes
M. gallisepticum S6 = experiment: MIC against mycoplasma in vitro; assay type: cell-based; conditions: Mycoplasmoides gallisepticum
M. dispar NCTC 10125 = experiment: MIC against mycoplasma in vitro; assay type: cell-based; conditions: 144 h
Strep. spp. 64/848-C = experiment: MIC against human bacteria in vitro; assay type: cell-based
Strep. agalactiae SPA1 = experiment: MIC against veterinary bacteria in vitro; conditions: Streptococcus agalactiae, SPA1, 18 h
Procedure: as §1

E. coli E1 = experiment: MIC against veterinary bacteria in vitro; conditions: Escherichia coli, E1, 18 h
Procedure: as §1

M. pneumoniae ATCC 15492 = experiment: MIC against mycoplasma in vitro; assay type: cell-based; conditions: Mycoplasmoides pneumoniae, ATCC15492, 144 h; M. pneumoniae ATCC 15492; 6 days, 37° C.; read-out: MIC
[10] = tested on: Haemophilus influenzae Q1; experiment: MIC against human bacteria in vitro; assay type: cell-based; conditions: Haemophilus influenzae Q1; 5% chocolated horse blood agar, 18 hours; read-out: MIC
B. subtilis ATCC 6633 = experiment: MIC against veterinary bacteria in vitro; conditions: Bacillus subtilis, ATCC6633, 18 h
Procedure: as §1

[11] = M. suipneumoniae JF 435, 6 days, 37° C., read-out: MIC
[12] = M. suipneumoniae NCTC 10110, 6 days, 37° C., read-out: MIC
[13] = Bacillus subtilis 6633, 5% chocolated horse blood agar, 18 hours, read-out: MIC
[14] = Strep. pyogenes R80/421-A, 5% chocolated horse blood agar, 18 hours, read-out: MIC
[15] = 144 h, M. gallisepticum S6, 6 days, 37° C., read-out: MIC
[16] = Strep. spp. 64/848-C, 5% chocolated horse blood agar, 18 hours, read-out: MIC

Row | SMILES | MIC [1] | MIC (S. dublin S7) | MIC (M. suipneumoniae JF 435; [11]) | MIC (E. coli NCTC 10418 [2]) | MIC (Staph. aureus Oxford [3]) | MIC (E. coli NCTC 10418 [4]) | MIC (S. typhimurium S18) | MIC (M. suipneumoniae Str. 11) | MIC (Staph. aureus Oxford [5]) | MIC (Strep. uberis SPU1) | MIC [6, 12] | MIC (Bacillus subtilis 6633; [13]) | MIC (E. coli ESS) | MIC [7] | MIC [8] | MIC [9, 14] | MIC (M. gallisepticum S6; [15]) | MIC (Strep. agalactiae SPA1) | MIC (E. coli E1) | MIC (M. pneumoniae ATCC 15492) | further results
1 | C/C(=C\c1ncc(CCCCCCCC(=O)O)o1)C[C@@H]1OC[C@H](C[C@@H]2O[C@H]2[C@@H](C)[C@H](C)O)[C@@H](O)[C@H]1O [Example 12, Sodium 8-[2-(1-normon-2-yl)-5-oxazolyl]-octanoate A] | 4 µg/mL | > 40 µg/mL | > 10 µg/mL | > 40 µg/mL | 8 µg/mL | > 16 µg/mL | > 40 µg/mL | 10 µg/mL | 0.625 µg/mL | 0.625 µg/mL | > 10 µg/mL | 4 µg/mL | > 16 µg/mL | 10 µg/mL | 0.625 µg/mL | 16 µg/mL | > 10 µg/mL | 20 µg/mL | > 40 µg/mL | > 10 µg/mL | MIC (M. dispar NCTC 10125; M. dispar NCTC 10125, 6 days, 37° C., read-out: MIC): 5 µg/mL; MIC (Strep. spp. 64/848-C; [16]): 4 µg/mL; MIC [10]: 1 µg/mL
2 | C/C(=C\c1ncc(-c2ccc(CO)cc2)o1)C[C@@H]1OC[C@H](C[C@@H]2O[C@H]2[C@@H](C)[C@H](C)O)[C@@H](O)[C@H]1O [Example 13, 5-p-Hydroxymethylphenyl-2-(1-normon-2-yl) oxazole A] | 2 µg/mL (≈ 4.22 µM) | > 80 µg/mL | 0.25 µg/mL (≈ 0.528 µM) | > 80 µg/mL | 4 µg/mL (≈ 8.45 µM) | > 128 µg/mL | > 80 µg/mL | 0.1 µg/mL (≈ 0.211 µM) | 1.25 µg/mL (≈ 2.64 µM) | 0.312 µg/mL (≈ 0.659 µM) | 0.25 µg/mL (≈ 0.528 µM) | – | 2 µg/mL (≈ 4.22 µM) | 0.1 µg/mL (≈ 0.211 µM) | 1.25 µg/mL (≈ 2.64 µM) | 4 µg/mL (≈ 8.45 µM) | 0.5 µg/mL (≈ 1.06 µM) | 10 µg/mL (≈ 21.1 µM) | > 80 µg/mL | 0.5 µg/mL (≈ 1.06 µM) | MIC (Bacillus subtilis 6633; Bacillus subtilis, 6633, 18 h): 1 µg/mL (≈ 2.11 µM); MIC (M. dispar NCTC 10125): 0.05 µg/mL (≈ 0.106 µM); MIC (Strep. spp. 64/848-C; 18 h): 1 µg/mL (≈ 2.11 µM); MIC [10]: 0.5 µg/mL (≈ 1.06 µM)
3 | C/C(=C\c1ncc(-c2ccsc2)o1)C[C@@H]1OC[C@H](C[C@@H]2O[C@H]2[C@@H](C)[C@H](C)O)[C@@H](O)[C@H]1O [Example 20, 5-(3-Thienyl)-2-(1-normon-2-yl) oxazole A] | 4 µg/mL (≈ 8.9 µM) | > 80 µg/mL | – | > 80 µg/mL | 4 µg/mL (≈ 8.9 µM) | > 128 µg/mL | > 80 µg/mL | 0.5 µg/mL (≈ 1.11 µM) | 2.55 µg/mL (≈ 5.67 µM) | 0.156 µg/mL (≈ 0.347 µM) | – | 0.5 µg/mL (≈ 1.11 µM) | 4 µg/mL (≈ 8.9 µM) | 0.5 µg/mL (≈ 1.11 µM) | 0.63 µg/mL (≈ 1.4 µM) | – | – | 1.25 µg/mL (≈ 2.78 µM) | > 80 µg/mL | 0.5 µg/mL (≈ 1.11 µM) | MIC (M. suipneumoniae JF 435): 1 µg/mL (≈ 2.22 µM); MIC [6]: 1 µg/mL (≈ 2.22 µM); MIC (B. subtilis ATCC 6633): 10 µg/mL (≈ 22.2 µM); MIC ([9]; R80/421A, 18 h): 0.25 µg/mL (≈ 0.556 µM); MIC (M. gallisepticum S6; S6, 144 h): 2.5 µg/mL (≈ 5.56 µM); MIC (M. dispar NCTC 10125): 0.25 µg/mL (≈ 0.556 µM); MIC (Strep. spp. 64/848-C; [16]): 2 µg/mL (≈ 4.45 µM)
